We go through two molecules from paper PMC5096734 (Chembiochem : a European journal of chemical biology, 2014).

Holding throughout (assay): fluorogenic hydrolysis, Michaelis-Menten
In test [1] the test system is C. antarctica lipase. The test is classed as biochemical, Moesziomyces antarcticus. The note with it: enzyme 10 μg/mL.
In test [2] the test system is PLE. The test is classed as biochemical, Sus scrofa.
Test [3] relates to B. subtilis esterase. The test is classed as biochemical, Bacillus subtilis. The note with it: enzyme 0.5 μg/mL.
Test [4] deals with T1, M. miehei lipase (Rhizomucor miehei, UniProt P19515).
T1 sequence (P19515 95-363): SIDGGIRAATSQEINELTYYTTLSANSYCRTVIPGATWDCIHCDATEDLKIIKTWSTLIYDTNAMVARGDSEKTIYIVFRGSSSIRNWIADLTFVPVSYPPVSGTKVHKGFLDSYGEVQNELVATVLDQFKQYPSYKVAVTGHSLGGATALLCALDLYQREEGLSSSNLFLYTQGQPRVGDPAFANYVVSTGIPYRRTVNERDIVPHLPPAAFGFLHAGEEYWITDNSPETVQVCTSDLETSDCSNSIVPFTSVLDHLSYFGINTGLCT
The test is classed as biochemical. The following applies: enzyme 10 μg/mL.

For `CC(=O)OCOc1ccc2nc3ccc(=O)cc-3oc2c1` [Res-AME], the Km – broadly, the substrate concentration at which the rate is half of its maximum – in test [1] stood at 6.8 ± 0.4 µM; in test [2] (enzyme 0.050 μg/mL), 4.9 ± 0.7 µM; in test [3] it was 19 ± 2 µM.

With DDAO-AME 1, the Km worked out at 9.5 ± 1.1 µM in test [1], 7.5 ± 0.8 µM in test [2] (enzyme 0.5 μg/mL), 6.7 ± 0.5 µM in test [3] and 4.4 ± 0.7 µM in test [4].
